Test [1] concerns the target T1, BA/F3-FLT3-ITD + F691L cells (Homo sapiens, UniProt P36888, F691L, cells depend on it, form not given).
T1 sequence (P36888 1-993 F691L): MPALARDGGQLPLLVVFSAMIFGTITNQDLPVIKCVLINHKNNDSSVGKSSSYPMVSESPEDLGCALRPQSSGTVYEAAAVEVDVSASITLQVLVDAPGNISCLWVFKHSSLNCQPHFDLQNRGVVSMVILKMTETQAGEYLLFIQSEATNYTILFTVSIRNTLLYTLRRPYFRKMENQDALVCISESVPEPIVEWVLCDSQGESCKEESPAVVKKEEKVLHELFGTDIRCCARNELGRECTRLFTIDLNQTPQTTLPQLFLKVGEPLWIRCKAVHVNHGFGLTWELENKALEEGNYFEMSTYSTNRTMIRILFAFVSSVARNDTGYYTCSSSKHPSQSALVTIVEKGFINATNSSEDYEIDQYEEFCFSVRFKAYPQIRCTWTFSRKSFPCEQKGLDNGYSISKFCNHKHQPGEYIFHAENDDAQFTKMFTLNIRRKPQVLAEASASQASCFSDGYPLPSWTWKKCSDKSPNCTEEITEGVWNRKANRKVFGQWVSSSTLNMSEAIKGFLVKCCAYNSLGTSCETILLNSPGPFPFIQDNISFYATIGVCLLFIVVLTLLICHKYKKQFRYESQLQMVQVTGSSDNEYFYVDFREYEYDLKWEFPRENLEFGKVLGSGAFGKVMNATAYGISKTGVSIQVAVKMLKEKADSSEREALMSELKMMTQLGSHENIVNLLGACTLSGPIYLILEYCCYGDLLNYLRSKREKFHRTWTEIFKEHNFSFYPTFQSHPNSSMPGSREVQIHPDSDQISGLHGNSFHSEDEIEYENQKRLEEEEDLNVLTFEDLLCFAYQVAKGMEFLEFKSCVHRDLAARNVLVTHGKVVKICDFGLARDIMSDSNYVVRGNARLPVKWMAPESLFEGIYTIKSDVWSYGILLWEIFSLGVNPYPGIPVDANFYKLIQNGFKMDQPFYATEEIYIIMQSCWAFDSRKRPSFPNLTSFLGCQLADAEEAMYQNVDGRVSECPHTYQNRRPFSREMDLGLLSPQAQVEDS
In words: BA/F3-FLT3-ITD + F691L cell proliferation assay (CellTiter-Glo). The format is cell-based, murine. As to conditions: BaF3 FLT3 ITD/F691L cells; read-out: Cell Activity (IC50 μM) BaF3_FLT3_ITD/F691L. In outline: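 Murine BA/F3 cells transfected with full-length FLT3 carrying ITD plus D835Y or F691L, grown without IL-3 so growth depends on FLT3. Seeded at 1×10^4 cells/well and dosed with 8 points, 10 to 0.0046 μM, 0.2% DMSO, for three days at 37 °C. IC50 from CellTiter-Glo luminescence (ATP content).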
(In general: ATP-based viability assays read luminescence as a measure of living cells.)

Test [2] has as its target c-Kit (Homo sapiens, UniProt P10721). Nature of the test: c-Kit biochemical assay (per US 2007/0032519). The essentials:
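Biochemical kinase inhibition run per US 2007/0032519; values reported as binned IC50 ranges (0.0001–1 μM, 1–10 μM, 10–200 μM).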

Molecules are shown by their SMILES.

Chain of c-Kit (P10721 26-976): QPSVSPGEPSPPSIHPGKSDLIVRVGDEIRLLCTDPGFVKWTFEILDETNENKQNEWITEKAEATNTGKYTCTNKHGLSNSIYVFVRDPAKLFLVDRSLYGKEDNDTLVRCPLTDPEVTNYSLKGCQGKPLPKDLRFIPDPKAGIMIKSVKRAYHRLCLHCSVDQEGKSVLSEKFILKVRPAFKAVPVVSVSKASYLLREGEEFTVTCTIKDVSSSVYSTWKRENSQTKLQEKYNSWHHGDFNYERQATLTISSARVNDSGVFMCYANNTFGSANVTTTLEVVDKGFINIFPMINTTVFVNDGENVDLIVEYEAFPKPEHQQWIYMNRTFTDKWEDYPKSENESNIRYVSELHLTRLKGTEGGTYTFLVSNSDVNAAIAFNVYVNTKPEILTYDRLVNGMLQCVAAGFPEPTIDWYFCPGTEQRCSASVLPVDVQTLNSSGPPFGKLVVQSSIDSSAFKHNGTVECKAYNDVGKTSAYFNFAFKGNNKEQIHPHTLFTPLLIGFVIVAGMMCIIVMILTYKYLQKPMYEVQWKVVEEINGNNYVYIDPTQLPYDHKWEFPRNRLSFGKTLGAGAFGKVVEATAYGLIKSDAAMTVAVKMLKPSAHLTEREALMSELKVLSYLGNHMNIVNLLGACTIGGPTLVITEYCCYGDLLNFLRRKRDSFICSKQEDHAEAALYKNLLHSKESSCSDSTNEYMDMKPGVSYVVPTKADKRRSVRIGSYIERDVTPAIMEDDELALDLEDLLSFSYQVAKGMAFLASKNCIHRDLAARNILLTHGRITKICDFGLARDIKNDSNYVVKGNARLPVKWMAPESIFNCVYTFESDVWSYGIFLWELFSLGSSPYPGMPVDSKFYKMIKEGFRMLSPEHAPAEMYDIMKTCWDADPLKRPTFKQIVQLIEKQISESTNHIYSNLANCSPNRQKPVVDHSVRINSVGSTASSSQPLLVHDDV

Regarding `CN(c1cccc(-c2cnc3[nH]cc(-c4ccc5ncn(C)c5c4)c3c2)c1)S(C)(=O)=O` [P-120, N-methyl-N-[3-[3-(3-methylbenzimidazol-5-yl)-1H-pyrrolo[2,3-b]pyridin-5-yl]phenyl]methanesulfonamide], the GI50 in test [1] lay in the range of 0.0001 to 1 µM. For the same compound, the IC50 (in general, the concentration that inhibits the measured activity by half) in test [2] was 1 to 10 µM.
On the same counts, the results for `COc1cnc2[nH]cc(-c3ccc4ncn(-c5cccc(F)c5)c4c3)c2c1` [P-128, 1-(3-fluorophenyl)-6-(5-methoxy-1H-pyrrolo[2,3-b]pyridin-3-yl)benzimidazole] are 0.0001 to 1 µM and 10 to 200 µM.
Take `COc1cnc2[nH]cc(-c3ccc4ncn(-c5cccc(C#N)c5)c4c3)c2c1` [P-135, 3-[6-(5-methoxy-1H-pyrrolo[2,3-b]pyridin-3-yl)benzimidazol-1-yl]benzonitrile]: the GI50 in test [1] lay within 0.0001 to 1 µM. The IC50 in test [2] lay in the range of 10 to 200 µM.
For `COc1cc(-c2cnc3[nH]cc(-c4ccc5ncn(C(C)(C)C)c5c4)c3n2)ccn1` [P-099, 7-(3-tert-butylbenzimidazol-5-yl)-2-(2-methoxy-4-pyridyl)-5H-pyrrolo[2,3-b]pyrazine], in that order: 0.0001 to 1 µM and 1 to 10 µM.
For `COc1cnc2[nH]cc(-c3ccc4ncn(-c5ccc(F)c(C)c5)c4c3)c2c1` [P-129, 1-(4-fluoro-3-methyl-phenyl)-6-(5-methoxy-1H-pyrrolo[2,3-b]pyridin-3-yl)benzimidazole], the GI50 in test [1] lay within 0.0001 to 1 µM. In test [2], the IC50 was in the range of 10 to 200 µM.
In the case of `O=S1(=O)CCCCN1c1cccc(-c2cnc3[nH]cc(-c4ccc5ncn(C6CCCNC6)c5c4)c3c2)c1` (centres unmarked) [P-224, 2-[3-[3-[3-(3-piperidyl)benzimidazol-5-yl]-1H-pyrrolo[2,3-b]pyridin-5-yl]phenyl]thiazinane 1,1-dioxide], the GI50 in test [1] was in the range of 0.0001 to 1 µM.
Same read-out and setting: then `CC(C)(C)n1cnc2ccc(-c3c[nH]c4ncc(-c5cccc(N6CCOCC6)c5)nc34)cc21` [P-226, 4-[3-[7-(3-tert-butylbenzimidazol-5-yl)-5H-pyrrolo[2,3-b]pyrazin-2-yl]phenyl]morpholine], with 0.0001 to 1 µM.
With `CC(C)(C)n1cnc2ccc(-c3c[nH]c4ncc(-c5cccc(NS(C)(=O)=O)c5)nc34)cc21` [P-097, N-[3-[7-(3-tert-butylbenzimidazol-5-yl)-5H-pyrrolo[2,3-b]pyrazin-2-yl]phenyl]methanesulfonamide], the GI50 in test [1] was in the range of 0.0001 to 1 µM. For the same compound, the IC50 in test [2] fell in the range of 0.0001 to 1 µM.
For the compound `CC(C)S(=O)(=O)Nc1cccc(-c2cnc3[nH]cc(-c4ccc5ncn(C6CCCNC6)c5c4)c3c2)c1` (centres unmarked) [P-215, N-[3-[3-[3-(3-piperidyl)benzimidazol-5-yl]-1H-pyrrolo[2,3-b]pyridin-5-yl]phenyl]propane-2-sulfonamide], the GI50 in test [1] was 0.0001 to 1 µM.
Turning to `CC(C)S(=O)(=O)Nc1cccc(-c2cnc3[nH]cc(-c4ccc5ncn(C(C)(C)C)c5c4)c3n2)c1` [P-232, N-[3-[7-(3-tert-butylbenzimidazol-5-yl)-5H-pyrrolo[2,3-b]pyrazin-2-yl]phenyl]propane-2-sulfonamide], the GI50 in test [1] lay within 0.0001 to 1 µM.
Same read-out and setting: then `CC(C)(C)n1cnc2ccc(-c3c[nH]c4ncc(C#Cc5cccc(OC(F)(F)F)c5)nc34)cc21` [P-249, 7-(3-tert-butylbenzimidazol-5-yl)-2-[2-[3-(trifluoromethoxy)phenyl]ethynyl]-5H-pyrrolo[2,3-b]pyrazine], with 1 to 10 µM; and `COc1cc(-c2cnc3[nH]cc(-c4ccc5ncn(C6CCCN(C(C)=O)C6)c5c4)c3n2)ccn1` (centres unmarked) [P-260, 1-[3-[6-[2-(2-methoxy-4-pyridyl)-5H-pyrrolo[2,3-b]pyrazin-7-yl]benzimidazol-1-yl]-1-piperidyl]ethanone], with 0.0001 to 1 µM.
For the compound `COc1cnc2[nH]cc(-c3ccc4ncn(Cc5ccc(F)cc5)c4c3)c2c1` [P-110, 1-[(4-fluorophenyl)methyl]-6-(5-methoxy-1H-pyrrolo[2,3-b]pyridin-3-yl)benzimidazole], the GI50 in test [1] lay within 0.0001 to 1 µM.
On the same count and under the same terms, the figure for `CCCS(=O)(=O)Nc1cccc(-c2cnc3[nH]cc(-c4ccc5ncn(C(C)(C)C)c5c4)c3c2)c1` [P-216, N-[3-[3-(3-tert-butylbenzimidazol-5-yl)-1H-pyrrolo[2,3-b]pyridin-5-yl]phenyl]propane-1-sulfonamide] is 0.0001 to 1 µM.
Same read-out and setting: then `COc1cc(C(=O)Nc2cnc3[nH]cc(-c4ccc5ncn(C6CCCNC6)c5c4)c3c2)ccn1` (centres unmarked) [P-247, 2-methoxy-N-[3-[3-(3-piperidyl)benzimidazol-5-yl]-1H-pyrrolo[2,3-b]pyridin-5-yl]pyridine-4-carboxamide], with 0.0001 to 1 µM; and `c1cc(-c2cnc3[nH]cc(-c4ccc5ncn(C6CCCNC6)c5c4)c3n2)cc(N2CCOCC2)n1` (centres unmarked) [P-262, 4-[4-[7-[3-(3-piperidyl)benzimidazol-5-yl]-5H-pyrrolo[2,3-b]pyrazin-2-yl]-2-pyridyl]morpholine], with 0.0001 to 1 µM; and `C#Cc1cnc2[nH]cc(-c3ccc4ncn(C5CCCNC5)c4c3)c2n1` (centres unmarked) [P-270, 2-ethynyl-7-[3-(3-piperidyl)benzimidazol-5-yl]-5H-pyrrolo[2,3-b]pyrazine], with 0.0001 to 1 µM.
The same measure, in the same setting: then `O=S(=O)(c1cccc(-c2cnc3[nH]cc(-c4ccc5ncn(C6CCCNC6)c5c4)c3n2)c1)N1CCCC1` (centres unmarked) [P-237, 7-[3-(3-piperidyl)benzimidazol-5-yl]-2-(3-pyrrolidin-1-ylsulfonylphenyl)-5H-pyrrolo[2,3-b]pyrazine], with 0.0001 to 1 µM; and `CC(C)(C)n1cnc2ccc(-c3c[nH]c4ncc(-c5cnn(C(F)F)c5)nc34)cc21` [P-255, 7-(3-tert-butylbenzimidazol-5-yl)-2-[1-(difluoromethyl)pyrazol-4-yl]-5H-pyrrolo[2,3-b]pyrazine], with 0.0001 to 1 µM; and `O=C(Nc1cccc(F)c1)c1cnc2[nH]cc(-c3ccc4ncn(C5CCCNC5)c4c3)c2c1` (centres unmarked) [P-178, N-(3-fluorophenyl)-3-[3-(3-piperidyl)benzimidazol-5-yl]-1H-pyrrolo[2,3-b]pyridine-5-carboxamide], with 0.0001 to 1 µM.
For the compound `COc1ncc(-c2cnc3[nH]cc(-c4ccc5ncn(C(C)(C)C)c5c4)c3n2)cn1` [P-263, 7-(3-tert-butylbenzimidazol-5-yl)-2-(2-methoxypyrimidin-5-yl)-5H-pyrrolo[2,3-b]pyrazine], in test [1], the GI50 lay within 0.0001 to 1 µM.
Still for that read-out and setting: then `COc1cnc2[nH]cc(-c3cnc4ncn(Cc5cc(C)on5)c4c3)c2c1` [P-144, 3-[[6-(5-methoxy-1H-pyrrolo[2,3-b]pyridin-3-yl)imidazo[4,5-b]pyridin-1-yl]methyl]-5-methyl-isoxazole], with 0.0001 to 1 µM; and `CC(C)(C)n1cnc2ccc(-c3c[nH]c4ncc(-c5cccc(N6CCCCS6(=O)=O)c5)nc34)cc21` [P-227, 2-[3-[7-(3-tert-butylbenzimidazol-5-yl)-5H-pyrrolo[2,3-b]pyrazin-2-yl]phenyl]thiazinane 1,1-dioxide], with 0.0001 to 1 µM.
Turning to `CC(C)n1cnc2ccc(-c3c[nH]c4ncc(-c5cnn(CC(F)(F)F)c5)cc34)cc21` [P-268, 1-isopropyl-6-[5-[1-(2,2,2-trifluoroethyl)pyrazol-4-yl]-1H-pyrrolo[2,3-b]pyridin-3-yl]benzimidazole], in test [1], the GI50 lay in the range of 0.0001 to 1 µM.
In the case of `c1cc(-c2cnc3[nH]cc(-c4ccc5ncn(C6CCCNC6)c5c4)c3c2)cc(N2CCOCC2)n1` (centres unmarked) [P-223, 4-[4-[3-[3-(3-piperidyl)benzimidazol-5-yl]-1H-pyrrolo[2,3-b]pyridin-5-yl]-2-pyridyl]morpholine], in test [1], the GI50 lay within 0.0001 to 1 µM.
Same read-out and setting: then `FC(F)(F)Cn1cc(-c2cnc3[nH]cc(-c4ccc5ncn(C6CCCNC6)c5c4)c3n2)cn1` (centres unmarked) [P-258, 7-[3-(3-piperidyl)benzimidazol-5-yl]-2-[1-(2,2,2-trifluoroethyl)pyrazol-4-yl]-5H-pyrrolo[2,3-b]pyrazine], with 0.0001 to 1 µM.

The values are drawn from patent publication US10160755B2 (Plexxikon Inc., priority 2015, dated 2018).
